Reference: ChEMBL document CHEMBL1146586, “Chromone studies. Part 13. Synthesis and electron-impact mass spectrometric studies of 5-hydroxy-2-isopropyl-7-methoxychromone, a constituent of the medicinal plant Baeckea frutescens, and side-chain analogues” (J Nat Prod, 2003)
≈ marks a conversion by molar mass, not a printed value.

Experiment: Toxicity against Artemia salina by Spearman-Karber method
Type: organism-based
Conditions: in vivo

SMILES	LC50
CCc1cc(=O)c2c(O)cc(OC)cc2o1	39 µg/mL (≈ 177 µM)
COc1cc(OC)c2c(=O)cc(Cc3ccccc3)oc2c1	247 µg/mL (≈ 835 µM)
COc1cc(O)c2c(=O)cc(C(C)C)oc2c1	23.8 µg/mL (≈ 102 µM)
COc1cc(OC)c2c(=O)cc(C)oc2c1	315 µg/mL (≈ 1430 µM)
COc1cc(O)c2c(=O)cc(Cc3ccccc3)oc2c1	517 µg/mL (≈ 1830 µM)
COc1cc(OC)c2c(=O)cc(C(C)C)oc2c1	94.2 µg/mL (≈ 379 µM)
CCCc1cc(=O)c2c(OC)cc(OC)cc2o1	106 µg/mL (≈ 427 µM)
CCc1cc(=O)c2c(OC)cc(OC)cc2o1	200 µg/mL (≈ 854 µM)
CCCc1cc(=O)c2c(O)cc(OC)cc2o1	31.5 µg/mL (≈ 134 µM)
COc1cc(O)c2c(=O)cc(C)oc2c1 [EUGENIN]	112 µg/mL (≈ 544 µM)
